Measured values published in article PMC6723352, “Exploring Structure-Activity Relationship in Tacrine-Squaramide Derivatives as Potent Cholinesterase Inhibitors” (Biomolecules, 2019).

Columns and labels:
in vitro = details: human
Protocol: The human origin cell line HepG2 (ATCC, Mannassas, VA, USA) isolated from liver hepatocellular carcinoma was used to evaluate cytotoxicity of tested compounds. The cells were cultivated in Dublecco’s modified Eagle’s medium (DMEM; Biosera, Nuaille, France) supplemented with 10% fetal bovine serum (Biosera) and 1% penicillin-streptomycin antibiotic solution (Sigma-Aldrich, St. Louis, MO, USA), incubated at 37 °C in a CO2 incubator (Binder CO2 incubator BC 160, Tuttlingen, Germany) and routinely passaged by trypsinization at 75–85% confluence.
The final concentration of DMSO was less than 0.25% per well.
After 24-h incubation, the medium containing serially diluted substances was aspirated from each well and replaced by 100 µL of fresh medium containing MTT (0.5 mg/mL). Plates were subsequently incubated at 37 °C in CO2 incubator for 45 min. The medium containing MTT was then aspirated and formazan dissolved in 100 μL of DMSO. The optical density of each well was measured using Synergy 2 Multi-Mode Microplate Reader (BioTek Instruments, Inc., Winooski, VT, USA) at 570 nm. The cell viability was expressed as the percentage of untreated control. Each experiment was performed in triplicate and repeated three independent times.
The IC50 values were expressed as a mean ± standard error of the mean (SEM).

[1] = target: T1, human AChE (hAChE), recombinant acetylcholinesterase (Homo sapiens, UniProt P22303); experiment: hAChE inhibition, modified Ellman's method; type: biochemical; details: for SI (selectivity index for hAChE): ratio IC50(hBChE)/IC50(hAChE)
T1 construct: made in house
Protocol: Three series of tacrine-squaramide homodimers were tested for their inhibitory potential against human AChE (hAChE) and human BChE (hBChE) enzymes using modified spectrophotometric method of Ellman et al.. THA, 6-Cl-THA and 7-MEOTA were used as reference compounds. […].
(§1) Human plasmatic butyrylcholinesterase (BChE; EC 3.1.1.8) and recombinant acetylcholinesterase (AChE; 3.1.1.7) were prepared at the Department of Toxicology and Military Pharmacy. 5,5′-dithiobis(2-nitrobenzoic acid) (Ellman’s reagent, DTNB), phosphate buffer (PB, pH 7.4), acetylthiocholine (ATC) and butyrylthiocholine (BTC), were purchased from Sigma-Aldrich, Prague, Czech Republic. For measuring purposes – polystyrene Nunc 96-well microplates with flat bottom shape (ThermoFisher Scientific, USA) were utilized.
(§2) All the assays were carried out in 0.1 M KH2PO4/K2HPO4 buffer, pH 7.4. Enzyme solutions were prepared at 2.0 units/mL in 2 mL aliquots. The assay medium (100 µL) consisted of 40 µL of 0.1 M phosphate buffer (pH 7.4), 20 µL of 0.01 M DTNB, 10 µL of the enzyme, and 20 µL of 0.01 M substrate (ATC/BTC iodide solution).
(§3) Tested compounds were preincubated for 5 min. The reaction was started by immediate addition of 20 µL of the substrate. The activity was determined by measuring the increase in absorbance at 412 for AChE/BChE at 37 °C at 2 min intervals - using a Multi-mode microplate reader Synergy 2 (Winooski, VT, USA). Each concentration was assayed in triplicate. Software GraphPad Prizm 5 (San Diego, CA, USA) was used for the statistical data evaluation.

[2] = target: human BChE (hBChE), human plasmatic butyrylcholinesterase (Homo sapiens, UniProt P06276); experiment: hBChE inhibition, modified Ellman's method; type: biochemical; details: mean of at least three experiments; read-out: IC50 hBChE
Protocol: Three series of tacrine-squaramide homodimers were tested for their inhibitory potential against human AChE (hAChE) and human BChE (hBChE) enzymes using modified spectrophotometric method of Ellman et al.. THA, 6-Cl-THA and 7-MEOTA were used as reference compounds.
as §1, §2, §3

[3] = for Pe: PAMPA, PBS pH 7.4; for CNS (+/−) predicted BBB permeation: class from Pe
Source text: An important feature for drugs targeting the brain is their ability to cross the BBB. The parallel artificial membrane permeability assay (PAMPA) is a high-throughput screening tool applicable for prediction of passive transport across BBB [57]. […] These include mainly (i) the different composition of the human phospholipid bilayer may cause deviation in predicted permeability, (ii) omitting the absorption of compounds that are actively transported by influx transporters and pumped-out by various efflux mechanisms with the glycoprotein P at the forefront or (iii) transport through the paracellular route which is mostly exploited by small […] molecules. Even considering these drawbacks, PAMPA-BBB is conceived as very simple but powerful tool for BBB prediction.
PAMPA (the parallel artificial membrane permeability assay) is a high-throughput screening tool applicable for prediction of the passive transport of potential drugs across the blood-brain barrier (BBB). In this study, it has been used as a non-cell-based in vitro assay carried out in a coated 96-well membrane filter. The filter membrane of the donor plate was coated with PBL (Polar Brain Lipid, Avanti, USA) in dodecane (4 µl of 20 mg/mL PBL in dodecane) and the acceptor well was filled with 300 µl of phosphate buffer saline, (PBS pH 7.4; VA). The tested compounds were dissolved first in DMSO and then diluted with PBS pH 7.4 to reach the final concentrations 50–500 µM in the donor well. […] In principle, test compound diffuse from the donor well through the polar brain lipid membrane (area = 0.28 cm^2) to the acceptor well. The concentration of the tested compound in both donor and the acceptor wells were assessed after 3, 4, 5 and 6 h of incubation in quadruplicate using the UV plate reader Synergy HT (Biotek, USA) at the maximum absorption wavelength of each compound (n = 3). Besides that, the solution of theoretical compound concentration, simulating the equilibrium state, established if the membrane was ideally permeable was prepared and assessed as well.

T1 sequence (P22303 32-614): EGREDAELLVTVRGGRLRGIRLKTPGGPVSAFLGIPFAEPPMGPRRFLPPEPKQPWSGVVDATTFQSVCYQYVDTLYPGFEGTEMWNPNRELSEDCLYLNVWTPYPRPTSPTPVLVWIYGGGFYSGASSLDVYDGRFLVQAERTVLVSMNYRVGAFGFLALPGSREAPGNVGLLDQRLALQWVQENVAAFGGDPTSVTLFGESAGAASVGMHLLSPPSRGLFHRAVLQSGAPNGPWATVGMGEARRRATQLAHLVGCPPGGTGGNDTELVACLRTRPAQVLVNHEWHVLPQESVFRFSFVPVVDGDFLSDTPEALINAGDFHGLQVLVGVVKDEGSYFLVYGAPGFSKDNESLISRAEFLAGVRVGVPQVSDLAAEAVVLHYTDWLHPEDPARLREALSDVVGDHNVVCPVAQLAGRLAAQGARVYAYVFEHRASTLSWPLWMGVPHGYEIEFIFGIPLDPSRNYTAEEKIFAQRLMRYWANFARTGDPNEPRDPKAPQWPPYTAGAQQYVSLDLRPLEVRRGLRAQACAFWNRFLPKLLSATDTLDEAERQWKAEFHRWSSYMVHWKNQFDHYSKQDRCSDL
Chain of human BChE (hBChE), human plasmatic butyrylcholinesterase (P06276 29-602): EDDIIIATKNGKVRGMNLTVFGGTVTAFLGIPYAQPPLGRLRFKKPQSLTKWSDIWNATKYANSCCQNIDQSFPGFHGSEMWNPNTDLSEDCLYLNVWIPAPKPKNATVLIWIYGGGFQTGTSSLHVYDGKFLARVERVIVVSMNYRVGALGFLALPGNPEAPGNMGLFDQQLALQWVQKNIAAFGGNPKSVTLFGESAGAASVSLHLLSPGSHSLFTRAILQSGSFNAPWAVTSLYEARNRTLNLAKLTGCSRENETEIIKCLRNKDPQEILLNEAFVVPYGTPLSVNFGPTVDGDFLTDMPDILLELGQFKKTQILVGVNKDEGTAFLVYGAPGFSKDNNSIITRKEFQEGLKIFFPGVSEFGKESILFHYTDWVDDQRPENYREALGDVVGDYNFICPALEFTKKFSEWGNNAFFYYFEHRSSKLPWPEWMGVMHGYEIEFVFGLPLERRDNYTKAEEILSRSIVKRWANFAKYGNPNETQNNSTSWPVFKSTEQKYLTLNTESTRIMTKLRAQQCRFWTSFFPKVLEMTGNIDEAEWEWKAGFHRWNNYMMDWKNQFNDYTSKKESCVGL

| SMILES | IC50 at 24 h (in vitro) | IC50 [1] | SI (selectivity index for hAChE) [1] | IC50 [2] | Pe [3] | CNS (+/−) predicted BBB permeation [3] |
| --- | --- | --- | --- | --- | --- | --- |
| O=c1c(NCCCCCNc2c3c(nc4ccccc24)CCCC3)c(NCCCCCNc2c3c(nc4ccccc24)CCCC3)c1=O [Compound 3d, Bis({5-[(1,2,3,4-tetrahydroacridin-9-yl)amino]pentyl}amino)cyclobut-3-ene-1,2-dione] | 69 µM | 0.0081 µM | 8.5 | 0.069 µM |  |  |
| O=c1c(NCCCCNc2c3c(nc4ccccc24)CCCC3)c(NCCCCNc2c3c(nc4ccccc24)CCCC3)c1=O [Compound 3c, Bis({4-[(1,2,3,4-tetrahydroacridin-9-yl)amino]butyl}amino)cyclobut-3-ene-1,2-dione] | 150 µM | 0.0055 µM | 14 | 0.075 µM |  |  |
| COc1ccc2nc3c(c(NCCCCCCCCNc4c(NCCCCCCCCNc5c6c(nc7ccc(OC)cc57)CCCC6)c(=O)c4=O)c2c1)CCCC3 [Compound 5g, Bis({8-[(7-methoxy-1,2,3,4-tetrahydroacridin-9-yl)amino]octyl}amino)cyclobut-3-ene-1,2-dione] | 3.5 µM | 0.49 µM | 5.9 | 2.9 µM |  |  |
| O=c1c(NCCCNc2c3c(nc4ccccc24)CCCC3)c(NCCCNc2c3c(nc4ccccc24)CCCC3)c1=O [Compound 3b, Bis({3-[(1,2,3,4-tetrahydroacridin-9-yl)amino]propyl}amino)cyclobut-3-ene-1,2-dione] | > 32 µM | 0.0084 µM | 6.5 | 0.055 µM |  |  |
| O=c1c(NCCCCCNc2c3c(nc4cc(Cl)ccc24)CCCC3)c(NCCCCCNc2c3c(nc4cc(Cl)ccc24)CCCC3)c1=O [Compound 4d, Bis({5-[(6-chloro-1,2,3,4-tetrahydroacridin-9-yl)amino]pentyl}amino)cyclobut-3-ene-1,2-dione] | > 64 µM | 0.0082 µM | 38 | 0.31 µM |  |  |
| O=c1c(NCCCCCCCCNc2c3c(nc4cc(Cl)ccc24)CCCC3)c(NCCCCCCCCNc2c3c(nc4cc(Cl)ccc24)CCCC3)c1=O [Compound 4g, Bis({8-[(6-chloro-1,2,3,4-tetrahydroacridin-9-yl)amino]octyl}amino)cyclobut-3-ene-1,2-dione] | > 64 µM | 0.01 µM | ˃10,000 | > 100 µM |  |  |
| O=c1c(NCCCCNc2c3c(nc4cc(Cl)ccc24)CCCC3)c(NCCCCNc2c3c(nc4cc(Cl)ccc24)CCCC3)c1=O [Compound 4c, Bis({4-[(6-chloro-1,2,3,4-tetrahydroacridin-9-yl)amino]butyl}amino)cyclobut-3-ene-1,2-dione] | > 64 µM | 0.0046 µM | 37 | 0.17 µM |  |  |
| COc1ccc2nc3c(c(NCCCCCCNc4c(NCCCCCCNc5c6c(nc7ccc(OC)cc57)CCCC6)c(=O)c4=O)c2c1)CCCC3 [Compound 5e, Bis({6-[(7-methoxy-1,2,3,4-tetrahydroacridin-9-yl)amino]hexyl}amino)cyclobut-3-ene-1,2-dione] | 26 µM | 0.15 µM | 7.3 | 1.1 µM |  |  |
| COc1ccc2nc3c(c(N)c2c1)CCCC3 [Compound 7-MEOTA, 7-methoxytacrine, reference compound] | 44 µM |  |  |  |  |  |
| CC(C)Cc1ccc(C(C)C(=O)O)cc1 (centres unmarked) [ibuprofen, reference compound] |  |  |  |  | 12 ×10⁻⁶ cm/s |  |
| COc1ccc2nc3c(c(NCCCCCCCNc4c(NCCCCCCCNc5c6c(nc7ccc(OC)cc57)CCCC6)c(=O)c4=O)c2c1)CCCC3 [Compound 5f, Bis({7-[(7-methoxy-1,2,3,4-tetrahydroacridin-9-yl)amino]heptyl}amino)cyclobut-3-ene-1,2-dione] | 9 µM | 0.17 µM | 7.6 | 1.3 µM |  |  |
| COc1ccc2c3c1O[C@H]1C[C@@H](O)C=C[C@@]31CCN(C)C2 [Galantamine, galantamine, reference compound] | 4200 µM |  |  |  |  |  |
| O=c1c(NCCCCCCCNc2c3c(nc4cc(Cl)ccc24)CCCC3)c(NCCCCCCCNc2c3c(nc4cc(Cl)ccc24)CCCC3)c1=O [Compound 4f, Bis({7-[(6-chloro-1,2,3,4-tetrahydroacridin-9-yl)amino]heptyl}amino)cyclobut-3-ene-1,2-dione] | > 64 µM | 0.016 µM | 28 | 0.45 µM |  |  |
| CCN(C)C(=O)Oc1cccc([C@H](C)N(C)C)c1 [Rivastigmine, rivastigmine, reference compound] | 3400 µM |  |  |  |  |  |
| COc1ccc2nc3c(c(NCCCCNc4c(NCCCCNc5c6c(nc7ccc(OC)cc57)CCCC6)c(=O)c4=O)c2c1)CCCC3 [Compound 5c, Bis({4-[(7-methoxy-1,2,3,4-tetrahydroacridin-9-yl)amino]butyl}amino)cyclobut-3-ene-1,2-dione] | 190 µM | 4.5 µM |  | 4.7 µM |  |  |
| Nc1c2c(nc3cc(Cl)ccc13)CCCC2 [Compound 6-Cl-THA, 6-chlorotacrine, reference compound] | 43 µM |  |  |  |  |  |
| COc1ccc2nc3c(c(NCCCNc4c(NCCCNc5c6c(nc7ccc(OC)cc57)CCCC6)c(=O)c4=O)c2c1)CCCC3 [Compound 5b, Bis({3-[(7-methoxy-1,2,3,4-tetrahydroacridin-9-yl)amino]propyl}amino)cyclobut-3-ene-1,2-dione] | > 64 µM | 1.1 µM | 8.1 | 8.9 µM |  |  |
| O=c1c(NCCCCCCCNc2c3c(nc4ccccc24)CCCC3)c(NCCCCCCCNc2c3c(nc4ccccc24)CCCC3)c1=O [Compound 3f, Bis({7-[(1,2,3,4-tetrahydroacridin-9-yl)amino]heptyl}amino)cyclobut-3-ene-1,2-dione] | 23 µM | 0.032 µM | 1 | 0.032 µM |  |  |
| NS(=O)(=O)c1cc2c(cc1Cl)N=CNS2(=O)=O [chlorothiazide, reference compound] |  |  |  |  | 0.3 ×10⁻⁶ cm/s | CNS − (CNS −: low BBB permeation predicted with Pe (10^−6 cm·s^−1) < 2.0) |
| Nc1c2c(nc3ccccc13)CCCC2 [THA, 9-amino-1,2,3,4-tetrahydroacridine, reference compound] |  |  |  |  | 6 ×10⁻⁶ cm/s | CNS + (CNS +: high BBB permeation predicted with Pe (10^−6 cm·s^−1) > 4.0) |
| CNC(=C[N+](=O)[O-])NCCSCc1ccc(CN(C)C)o1 [ranitidine, reference compound] |  |  |  |  | 0 ×10⁻⁶ cm/s | CNS − (CNS −: low BBB permeation predicted with Pe (10^−6 cm·s^−1) < 2.0) |
